From patent US20250388756A1, “NOVEL FLUORESCENT COMPOUND, AND LIPID BILAYER DYEING METHOD AND ENDOCYTOSIS DETECTION METHOD USING SAID COMPOUND” (DOJINDO LABORATORIES, priority 2020, published 2025)

What was measured:
[1] = tested on: HeLa cells; experiment: Cell staining test (confocal laser microscope); assay type: cell-based; conditions: FIG. 8
Procedure: HeLa cells were seeded onto μ-slide 8 well plates (ibidi) and cultured overnight in an incubator (37° C., 5% CO2, MEM medium (containing 10% fetal bovine serum and 1% penicillin/streptomycin)).

[2] = tested on: HeLa cells; experiment: Endosome staining test (confocal laser microscope); assay type: cell-based; conditions: endosomes enlarged by wortmannin 100 nM, 30 minutes at 37° C., FIG. 9
Procedure: HeLa cells were seeded on μ-slide 8 well plates (ibidi) and cultured overnight in an incubator (37° C., 5% CO2 presence, MEM medium (containing 10% fetal bovine serum and 1% penicillin/streptomycin)). The medium was removed and wortmannin (100 nM: a PI-3 kinase inhibitor that hypertrophies early endosomes) diluted in MEM medium Various fluorescent compounds (Compound (3), pHrodo Dex (Thermofisher), FM1-43 (Molecular Probe)) diluted with MEM medium were added and incubated for 30 minutes at 37° C. The supernatant was removed, and the cells were incubated at 37° C. for 30 minutes. The supernatant was removed, replaced with MEM medium and observed with a confocal laser microscope. In addition, instead of adding fluorescent compounds, the same experiment was performed using HeLa cells expressing Rab5-RFP (cDNA encoding a fusion protein in which a fluorescent protein is fused to an endosomal membrane-specific protein) before addition of wortmannin. The same experiments were also performed on the control group (CTRL) without adding wortmannin.

[3] = Effect of pH on fluorescence intensity; assay type: physicochemical; conditions: 1 μmol/L in 1:1 mixture of buffer (pH 7.4, 6.5, 4) and DMSO; FIG. 7
Procedure: Compound (3) was added to a 1:1 mixture of PBS (pH 7.4), Tris-HCl buffer (pH 6.5), phthalate buffer (pH 4) and DMSO to a final concentration of 1 μmol/L and the fluorescence spectrum was measured.

## O=C1c2ccc3c4cccc5cccc(c6ccc(c2c36)C(=O)N1CCCS(=O)(=O)O)c54 [Compound (1)]
[1]
  localisation of fluorescent compound after leaving overnight (retention in cell membrane): remained in the cell membrane

## CCCCCN1C(=O)c2ccc3c4cccc5c(N6CCN(CCCS(=O)(=O)O)CC6)ccc(c6ccc(c2c36)C1=O)c54 [Compound (2)]
[1]
  localisation of fluorescent compound after leaving overnight (retention in cell membrane): remained in the cell membrane

## CCCCCN1C(=O)c2cccc3c(N4CCN(CCCS(=O)(=O)O)CC4)ccc(c23)C1=O [Compound (3)]
[2]
  staining of endosomes (membrane versus contents): only the endosomal membrane was specifically stained
[3]
  change of fluorescence intensity with pH: marked increase in fluorescence intensity was observed with decreasing pH
